Test results published in patent US6287813A, “Antibiotic-based gene regulation system” (Cistronics Cell Technology GmbH, priority 1999, dated 2001).

Key:
PIT/PPIR system [1] = molecular target: T1, PIT/PPIR system (Streptomyces coelicolor, UniProt Q9ADN3); assay: Dose-response of PI-dependent SEAP expression in CHO-PIT1-SEAP; format: cell-based; settings: 48 h
T1 construct: pMF156/pTWIN in CHO cells, PPIR-SEAP or GFP reporter
T1 sequence (Q9ADN3 1-252): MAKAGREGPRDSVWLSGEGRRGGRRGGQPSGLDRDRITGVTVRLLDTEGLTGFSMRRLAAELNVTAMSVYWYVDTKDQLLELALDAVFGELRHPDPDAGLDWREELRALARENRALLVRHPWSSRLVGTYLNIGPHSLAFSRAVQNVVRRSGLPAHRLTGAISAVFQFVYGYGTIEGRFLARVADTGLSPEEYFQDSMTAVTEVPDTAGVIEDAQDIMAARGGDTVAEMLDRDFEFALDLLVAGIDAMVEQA
Method: FIG. 2: Dose-response curve for PI-dependent gene expression. The cell line CHO-PIT1-SEAP was grown for 48 h at different PI concentrations (ng/ml). The relative SEAP production is shown over 5 orders of magnitude of PI concentration.
Chinese hamster ovary cells (CHO-K1, ATCC: CCL 61), Baby hamster kidney cells (BHK-21, ATCC: CRL-8544), and HeLa cells (ATCC: CRL-7923) as well as stable cell lines CHO-PIT1, CHO-PIT2, CHO-TWIN195, CHO-TWIN1108 and CHO-PIT1-SEAP were cultured as described before (Fussenegger et al., 1998, Nat. Biotechnol. 16,468-472) in the presence of appropriate antibiotics: G418 400 μg/ml; zeocin 100 μg/ml. Optimized CaPO4 protocols were used for high efficiency transient transfection of all cell lines (id). Transient transfected cells were routinely analyzed after 48 h for GFP or SEAP expression using fluorescence microscopy and p-nitrophenolphosphate-based light absorbance timecourse, respectively, as described before (Fussenegger et al., 1998, Nat. Biotechnol. 16, 468-472; Berger et al., 1988, Gene 66, 1-10 b). For construction of stable CHO-PIT and CHO-TWIN cell lines, CHO-K1 was cotransfected either with pMF156 or pTWIN1 and pSV2neo carrying the G418 resistance gene. CHO-PIT1-SEAP was constructed by cotransfection of pMF172 and pZeoSV2 (Invitrogen). For assessment of dose-response characteristics of PPIR -regulated gene expression, CHO-PIT1-SEAP were cultured at cell densities of 150,000/ml for 48 at various PI concentrations. The mixed populations were cloned using FACS-mediated single-cell-sorting (FACStar^Plus; Beckton Dickinson). Gel retardation assay were performed as described (Salah-Bey et al., 1995, supra) using Pip purified from an overproducing strain of E. coli. Pip (0.02 pmol) was titrated with a range of antibiotic concentrations in a reaction volume of 20 μl. […]
The levels of PPIR -regulated gene expression could be controlled by varying the concentrations of PI used for induction. This was assessed using a stable CHO cell line (CHO-PIT1-SEAP) which expresses PPIR -SEAP (pMF172) and contains also a constitutive PIT expression vector (pMF156). […]

PIT/PPIR system [2] = molecular target: T1, PIT/PPIR system; assay: SEAP reporter assay, stable CHO-PIT1/CHO-PIT2 transiently transfected with pMF172; format: cell-based
Method: Chinese hamster ovary cells (CHO-K1, ATCC: CCL 61), Baby hamster kidney cells (BHK-21, ATCC: CRL-8544), and HeLa cells (ATCC: CRL-7923) as well as stable cell lines CHO-PIT1, CHO-PIT2, CHO-TWIN195, CHO-TWIN1108 and CHO-PIT1-SEAP were cultured as described before (Fussenegger et al., 1998, Nat. Biotechnol. 16,468-472) in the presence of appropriate antibiotics: G418 400 μg/ml; zeocin 100 μg/ml. Optimized CaPO4 protocols were used for high efficiency transient transfection of all cell lines (id). Transient transfected cells were routinely analyzed after 48 h for GFP or SEAP expression using fluorescence microscopy and p-nitrophenolphosphate-based light absorbance timecourse, respectively, as described before (Fussenegger et al., 1998, Nat. Biotechnol. 16, 468-472; Berger et al., 1988, Gene 66, 1-10 b). For construction of stable CHO-PIT and CHO-TWIN cell lines, CHO-K1 was cotransfected either with pMF156 or pTWIN1 and pSV2neo carrying the G418 resistance gene. CHO-PIT1-SEAP was constructed by cotransfection of pMF172 and pZeoSV2 (Invitrogen). For assessment of dose-response characteristics of PPIR -regulated gene expression, CHO-PIT1-SEAP were cultured at cell densities of 150,000/ml for 48 at various PI concentrations. The mixed populations were cloned using FACS-mediated single-cell-sorting (FACStar^Plus; Beckton Dickinson). Gel retardation assay were performed as described (Salah-Bey et al., 1995, supra) using Pip purified from an overproducing strain of E. coli. Pip (0.02 pmol) was titrated with a range of antibiotic concentrations in a reaction volume of 20 μl. Protein solutions were pre-incubated at room temperature for 15 min. in the absence or presence of PI or its derivative quinupristin in a buffer containing 10 mM Tris (pH 7.8), 10 mM MgCl2, 300 mM NaCl, 2 mM DTT and 10% glycerol. An EcoRI-HindII PPTR fragment (0.02 pmol) containing three Pip binding sites (radiolabelled using α-^32 P)dATP was added and incubated for 15 min. To minimize nonspecific protein binding and increase protein stability, 2 μg of poly dIdC and 20 μg BSA were included in the incubation mix. Protein-DNA complexes were separated on 5% polyacrylamide,TBE gels and visualized by autoradiography.
Five different sources of pristinamycin were used: The two therapeutic forms Pyostacin™ and Synercid™, pristinamycin discs, and the single compounds pristinamycin I (PI) and pristinamycin II (PII). Pyostacin™ pills (500 mg) were ground in a mortar and solubilized in DMSO or water at a stock concentration of 50 mg/ml. Synercid™ (RP 59500; Lot Nr. CB06253) was provided by Aventis in injection-ready vials containing 500 mg lyophilized antibiotic which was reconstituted in 5 ml of 5% glucose solution and frozen at -20° C. Individual pristinamycin compounds PI and PII (identical to virginiamycin M1 (VM1); Sigma ref. V2753) were solubilized in DMSO at a concentration of 50 mg/ml and kept at -20° C. Antibiotic discs containing 15 μg pristinamycin or virginiamycin (bioMerieux, ref. 54552; bioMerieux, ref. 54612) were soaked in 1 ml cell culture medium at 4i C for up to 24 h. Virginiamycin consists of virginiamnycin S1 (VS1), the PI analogue, and virginiamycin M1, which is identical in structure to PII (Barri re et al., 1994, supra). 2 μg/ml of streptogramin B was routinely used for regulation studies in cell culture. The concentration of individual streptogramin components was calculated based on their fixed 70:30 ratio (w/w; PII/VM1 /dalfopristin: PI/VS1 /quinupristin). For control experiments TET and doxycycline (DOX) were used either as discs (30 μg/disc, bioM.quadrature.rieux ref. 54882 (TET) and ref. 54172 (DOX)) or as powder (Sigma refs. T3383 and D9891).
Table 4: Pristinamycin I- (PI) dependent SEAP production of PIT- (PI-dependent transactivator) expressing stable cell lines CHO-PIT1 and CHO-PIT2 transiently transfected with the SEAP-encoding, PI-responsive reporter plasmid pMF172.
Table 5: Regulation potential of different streptogramins. […]

pristinamycin I [PI]
PI concentration at which PIT/PPIR is fully induced (PIT/PPIR system [1]): < 10 ng/mL
PI concentration at which PIT/PPIR is repressed (lowest SEAP expression) (PIT/PPIR system [1]): > 500 ng/mL
PI concentration window in which gene expression can be adjusted (PIT/PPIR system [1]): 10 to 500 ng/mL
Induction factor (ratio of SEAP activity without PI to SEAP activity with PI) (PIT/PPIR system [2]; CHO-PIT1): 13
SEAP Production (%) (PIT/PPIR system [2]; CHO-PIT1 + pMF172, 48 h, 2 μg/ml of group B component, no streptogramin = 100): 8.06 ± 0.05%
SEAP Production (%) (PIT/PPIR system [2]; CHO-PIT1 + pMF172, +PI 2 μg/ml, -PI = 100): 7.50 ± 2.32%
Induction factor (ratio of SEAP activity without PI to SEAP activity with PI) (PIT/PPIR system [2]; CHO-PIT2): 8
SEAP Production (%) (PIT/PPIR system [2]; CHO-PIT2 + pMF172, +PI 2 μg/ml, -PI = 100): 12.7 ± 3.57%
Reversibility of PI-responsive SEAP regulation (PIT/PPIR system [2]; CHO-PIT derivatives, repeated cycles of addition and withdrawal): fully reversible
